Data: EP0637247B1, “TREATMENT OF HERPESVIRUS INFECTION” (priority 1992, dated 1993)
Like-named read-outs stand apart in the source and are kept apart here. Where a SMILES comes first, the peptide text is derived from it. [ ]: non-standard residue; d: D form.

Key:
HSV-1 F = format: cell-based; details: plaque reduction, HSV-1 F on Vero cell monolayers, peptide pretreatment 25 hours, replication 2 to 3 days
Protocol: Selected compounds were first formulated as 10 mM stocks in water for in vitro and cell culture procedures. The stocks are then diluted into buffers used for specific assays, or into cell culture media. For animal studies peptides are diluted into phosphate buffer saline.
Results of the plaque reduction assay performed with various peptides, expressed in terms of IC50 are tabulated below: […]

HSV-1 strain F = details: mice, foot-pad injections in PBS, one week pretreatment then three times weekly; particularly at the doses of 5 and 50µg/mouse
Protocol: After pretreatment, the left footpad was inflamed by injecting about 5 µL of 1M NaCl. After about 6 hours, the same footpad was abraded and a drop of HSV-1 strain F (2 x 10^3 pfu/ml) was then added deposited on the inflamed footpad.

Row | SMILES | IC50 (HSV-1 F; read-out: IC50) [µM] | further results
1 | CC[C@H](C)[C@H](NC(=O)[C@H](C)NC(=O)[C@@H](NC(=O)[C@H](Cc1ccccc1)NC(C)=O)[C@@H](C)CC)C(=O)N[C@@H](C)C(=O)N[C@H](CCCNC(=N)N)C(=O)N[C@H](CCCCN)C(=O)N[C@H](CCCCN)C(=O)N[C@H](CCCNC(=N)N)C(=O)N[C@H](CCCNC(=N)N)C(=O)N[C@H](CCC(N)=O)C(=O)N[C@H](CCCNC(=N)N)C(=O)N[C@H](CCCNC(=N)N)C(N)=O (Ac-FIAIA[dR][dK][dK][dR][dR][dQ][dR][dR]-NH2) | 10 | 
2 | CC(=O)N[C@H](CCCNC(=N)N)C(=O)N[C@H](CCCCN)C(=O)N[C@H](CCCCN)C(=O)N[C@H](CCCNC(=N)N)C(=O)N[C@H](CCCNC(=N)N)C(=O)N[C@H](CCC(N)=O)C(=O)N[C@H](CCCNC(=N)N)C(=O)N[C@H](CCCNC(=N)N)C(N)=O (Ac-[dR][dK][dK][dR][dR][dQ][dR][dR]-NH2) | > 20 | 
3 | CC(=O)N[C@H](CCCNC(=N)N)C(=O)N[C@H](CCCNC(=N)N)C(=O)N[C@H](CCCNC(=N)N)C(=O)N[C@H](CCCNC(=N)N)C(=O)N[C@H](CCCNC(=N)N)C(=O)N[C@H](CCCNC(=N)N)C(=O)N[C@H](CCCNC(=N)N)C(N)=O [acetyl-[D-Arg]7-NH2, acetyl-[D-(Arg)7]-NH2] |  | IC50 (HSV-1 F): slight
4 | CC(=O)N[C@H](CCCNC(=N)N)C(=O)N[C@H](CCCNC(=N)N)C(=O)N[C@H](CCCNC(=N)N)C(=O)N[C@H](CCCNC(=N)N)C(=O)N[C@H](CCCNC(=N)N)C(=O)N[C@H](CCCNC(=N)N)C(=O)N[C@H](CCCNC(=N)N)C(=O)N[C@H](CCCNC(=N)N)C(=O)N[C@H](CCCNC(=N)N)C(N)=O [acetyl-[D-Arg]9-NH2] |  | anti-herpetic effect in vivo (Figure 3) (HSV-1 strain F): anti-herpetic result
